Molecular target: α-glucosidase
Assay: enzyme inhibition assay with p-nitrophenyl-D-glycopyranoside substrate
Type: biochemical

SMILES	IC50 [nM]
COc1cccc(O)c1-c1cc(=O)c2c(O)c(OC)c(OC)c(OC)c2o1 [Skullcapflavone II]	95 ± 11.5
COc1cc(O)c2c(=O)cc(-c3ccccc3O)oc2c1OC [Skullcapflavone I]	103 ± 8.43
